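Test compounds were applied to cells in 96-well plates for 48 hours at 5 doses. GI50: concentration for 50% inhibition of growth. TGI marks complete inhibition of growth.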
Experiments:
Experiment in all cases: growth of human tumour cells (NCI), 48 h
[1] = tested on: NCI-H226 lung
[2] = tested on: NCI-H23 lung
[3] = tested on: NCI-H460 lung
[4] = tested on: NCI-H522 lung
[5] = tested on: NCI/ADR-RES ovarian
[6] = tested on: OVCAR-3 ovarian
[7] = tested on: OVCAR-4 ovarian
[8] = tested on: OVCAR-5 ovarian
[9] = tested on: OVCAR-8 ovarian
[10] = tested on: PC-3 prostate
[11] = tested on: RPMI-8226 leukemia
[12] = tested on: RXF 393 renal
[13] = tested on: SF-268 CNS
[14] = tested on: SF-295 CNS
[15] = tested on: SF-539 CNS
[16] = tested on: SK-MEL-2 melanoma
[17] = tested on: SK-MEL-28 melanoma
[18] = tested on: SK-MEL-5 melanoma
[19] = tested on: SK-OV-3 ovarian
[20] = tested on: SN12C renal
[21] = tested on: SNB-19 CNS
[22] = tested on: SNB-75 CNS
[23] = tested on: SR leukemia
[24] = tested on: SW-620 colon
[25] = tested on: T-47D breast
[26] = tested on: TK-10 renal
[27] = tested on: U251 CNS
[28] = tested on: UACC-257 melanoma
[29] = tested on: UACC-62 melanoma
[30] = tested on: UO-31 renal

SMILES: CC1(C)C(N(O)C(=O)Nc2ccc(Cl)cc2)N(c2ccc(Cl)cc2)C(=O)N1CC(=O)N/N=C/C=C/c1ccc([N+](=O)[O-])o1 (configuration not stated)
- TGI [1]: 4880 nM
- GI50 [2]: 2130 nM
- TGI [2]: 5560 nM
- GI50 [3]: 2270 nM
- TGI [3]: 6390 nM
- GI50 [4]: 2230 nM
- TGI [4]: > 21300 nM
- GI50 [5]: > 100000 nM
- TGI [5]: > 100000 nM
- GI50 [6]: 1490 nM
- TGI [6]: 3960 nM
- GI50 [7]: 3870 nM
- TGI [7]: > 100000 nM
- GI50 [8]: 3810 nM
- TGI [8]: 14000 nM
- GI50 [9]: 1860 nM
- GI50 [10]: 679 nM
- GI50 [11]: 327 nM
- TGI [11]: 1630 nM
- GI50 [12]: 337 nM
- TGI [12]: 1640 nM
- GI50 [13]: 3800 nM
- TGI [13]: > 59000 nM
- GI50 [14]: 2550 nM
- TGI [14]: > 100000 nM
- GI50 [15]: 1810 nM
- TGI [15]: 3810 nM
- GI50 [16]: 946 nM
- TGI [16]: 4420 nM
- GI50 [17]: 1610 nM
- TGI [17]: 3160 nM
- GI50 [18]: 1320 nM
- TGI [18]: 2760 nM
- GI50 [19]: 4480 nM
- TGI [19]: > 100000 nM
- GI50 [20]: 1730 nM
- TGI [20]: 9730 nM
- GI50 [21]: 2270 nM
- TGI [21]: 6730 nM
- GI50 [22]: 1880 nM
- TGI [22]: 7110 nM
- GI50 [23]: 273 nM
- TGI [23]: 1950 nM
- GI50 [24]: 1310 nM
- TGI [24]: 3520 nM
- GI50 [25]: 3470 nM
- TGI [25]: > 70100 nM
- GI50 [26]: 4060 nM
- TGI [26]: > 100000 nM
- GI50 [27]: 1570 nM
- TGI [27]: > 20700 nM
- GI50 [28]: 1580 nM
- TGI [28]: 3520 nM
- GI50 [29]: 1350 nM
- TGI [29]: 3910 nM
- GI50 [30]: 2640 nM
- TGI [30]: > 20800 nM

From PubChem BioAssay (NCI)
